# Results as given in patent US20260200920A1, “SUBSTITUTED AMINOPYRIDINE COMPOUNDS FOR USE AS AKT1 INHIBITORS” (Atavistik Bio, Inc., priority 2023, published 2026).
# Legend:
# [1] = molecular target: T1, human recombinant kinase full-length AKT1 E17K (Homo sapiens, UniProt P31749, E17K); experiment: AKT1 E17K kinase assay (TR-FRET, Lance); assay type: biochemical; conditions: 0.6 nM AKT1 E17K, 50 nM Ulight-CREBtide, either 50 μM ATP or 2 mM ATP, 60 min at RT
# T1 construct: Purified human recombinant kinase full-length AKT1 E17K was expressed in insect cells; made in house; host or cells: insect cells
# In short: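 Full-length AKT1 E17K from insect cells, PDPK1-activated, at 0.6 nM with 50 nM Ulight-CREBtide and 50 μM or 2 mM ATP, pH 7.5, 1% DMSO. Enzyme and compound preincubated 15 min, reaction run 60 min at RT; Eu-anti-phospho-CREB (Ser133) TR-FRET 665/620 ratio, 10-point curve, IC50 by 4-parameter fit.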
# [2] = molecular target: T2, human recombinant kinase full-length wildtype AKT1 (Homo sapiens, UniProt P31749); experiment: AKT1 kinase assay (wildtype, TR-FRET, Lance); assay type: biochemical; conditions: 0.6 nM wildtype AKT1, 50 nM Ulight-CREBtide, either 50 μM ATP or 2 mM ATP, 60 min at RT
# T2 construct: Purified human recombinant kinase full-length wildtype AKT1 was expressed in insect cells; made in house; host or cells: insect cells
# In short: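 Insect-cell-expressed full-length human AKT1, PDPK1-activated (0.6 nM), preincubated with compound 15 min at RT, then reacted 60 min at RT with 50 nM ULight-CREBtide and 50 μM or 2 mM ATP (pH 7.5, 1% DMSO). Phospho-CREBtide read by Eu-anti-phospho-Ser133 TR-FRET (665/620 ratio); IC50 from 10-point 4-parameter fit.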
# T1 sequence (P31749 whole entry E17K): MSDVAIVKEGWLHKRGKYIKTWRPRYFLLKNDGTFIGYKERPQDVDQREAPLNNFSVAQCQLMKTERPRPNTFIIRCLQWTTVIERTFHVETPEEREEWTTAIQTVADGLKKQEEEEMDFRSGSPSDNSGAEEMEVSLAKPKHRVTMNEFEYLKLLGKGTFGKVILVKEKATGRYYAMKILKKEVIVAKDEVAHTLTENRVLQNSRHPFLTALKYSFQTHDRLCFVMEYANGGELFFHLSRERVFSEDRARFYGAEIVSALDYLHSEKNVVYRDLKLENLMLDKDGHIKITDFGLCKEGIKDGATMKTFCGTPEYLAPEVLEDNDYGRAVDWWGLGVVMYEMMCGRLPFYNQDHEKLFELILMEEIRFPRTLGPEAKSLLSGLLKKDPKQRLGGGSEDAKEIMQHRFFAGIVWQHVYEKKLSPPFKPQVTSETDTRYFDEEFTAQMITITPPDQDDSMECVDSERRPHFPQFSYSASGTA
# T2 sequence (P31749 whole entry): as the sequence (P31749 whole entry E17K) above, with K17E counted along it
Structure (SMILES),IC50 [1] [µM],IC50 [2] [µM]
CCN(Cc1ccc(-n2c(-c3cccnc3N)nc3ccc(-c4ccccc4)nc32)c(F)c1)[C@H]1CC[C@H](C(=O)O)CC1 [Compound I-163],≥ 2,< 20
Cc1cc(CN2CCC(C(C)(C)C(=O)O)C2)ccc1-n1c(-c2cccnc2N)nc2ccc(-c3ccccc3)nc21 (stereo not shown) [Compound I-180],≥ 2,< 20
CC1(C)CC(CN2CCC(c3ccc(-n4c(-c5cccnc5N)nc5ccc(-c6ccccc6)nc54)cc3)CC2)CCC1C(=O)O (stereo not shown) [Compound I-193],≥ 2,< 20
"Nc1ncccc1-c1nc2ccc(-c3ccccc3)nc2n1-c1ccc(NC(=O)N2CCC(C(=O)O)CC2)c(F)c1 [Compound I-106, 1-[[4-[2-(2-amino-3-pyridyl)-5-phenyl-imidazo[4,5-b]pyridin-3-yl]-2-fluoro-phenyl]carbamoyl]piperidine-4-carboxylic acid]",0.5 to 2,< 20
"Cc1nc(NC(=O)C2CCC(C(=O)O)C2)ccc1-n1c(-c2cccnc2N)nc2ccc(-c3ccccc3)nc21 (stereo not shown) [Compound I-129, 3-((5-(2-(2-aminopyridin-3-yl)-5-phenyl-3H-imidazo[4,5-b]pyridin-3-yl)-6-methylpyridin-2-yl)carbamoyl)cyclopentane-1-carboxylic acid]",0.5 to 2,< 20
"Nc1ncccc1-c1nc2ccc(-c3ccccc3)nc2n1-c1ccc(N2CCCC(C(=O)O)C2)nc1 (stereo not shown) [Compound I-28, 1-(5-(2-(2-aminopyridin-3-yl)-5-phenyl-3H-imidazo[4,5-b]pyridin-3-yl)pyridin-2-yl)piperidine-3-carboxylic acid]",≥ 2,< 20
"Nc1ncccc1-c1nc2ccc(-c3ccccc3)nc2n1-c1ccc([C@H]2CCN(C[C@H]3CC[C@H](C(=O)O)CC3)C2)cc1 (single isomer, unassigned) [Compound I-232]",0.5 to 2,< 20
"CC1(C)CC(C(=O)O)CCN1Cc1ccc(-n2c(-c3cccnc3N)nc3ccc(-c4ccccc4)nc32)cc1 (stereo not shown) [Compound I-99, 1-(4-(2-(2-aminopyridin-3-yl)-5-phenyl-3H-imidazo[4,5-b]pyridin-3-yl)benzyl)-2,2-dimethylpiperidine-4-carboxylic acid]",≥ 2,< 20
"Nc1ncccc1-c1nc2ccc(-c3ccccc3)nc2n1-c1ccc(C2CN(C[C@H]3CC[C@H](C(=O)O)CC3)C2)c(F)c1 [Compound I-62, (1r,4r)-4-((3-(4-(2-(2-aminopyridin-3-yl)-5-phenyl-3H-imidazo[4,5-b]pyridin-3-yl)-2-fluorophenyl)azetidin-1-yl)methyl)cyclohexane-1-carboxylic acid]",0.5 to 2,< 20
"Nc1ncccc1-c1nc2ccc(-c3ccccc3)cc2n1-c1ccc(NC(=O)C2CCC(C(=O)O)C2)nc1 (stereo not shown) [Compound I-110, 3-((5-(2-(2-aminopyridin-3-yl)-6-phenyl-1H-benzo[d]imidazol-1-yl)pyridin-2-yl)carbamoyl)cyclopentane-1-carboxylic acid]",≥ 2,< 20
"CN(Cc1ccc(-n2c(-c3cccnc3N)nc3ccc(-c4ccccc4)nc32)cc1)[C@H]1CC[C@H](C(N)=O)CC1 [Compound I-187, trans-4-((4-(2-(2-aminopyridin-3-yl)-5-phenyl-3H-imidazo[4,5-b]pyridin-3-yl)benzyl)(methyl)amino)cyclohexane-1-carboxamide]",≥ 2,< 20
"Nc1ncccc1-c1nc2ccc(-c3ccccc3)nc2n1-c1ccc(CN2CCC(CC(=O)O)CC2)cc1 [Compound I-97, 2-(1-(4-(2-(2-aminopyridin-3-yl)-5-phenyl-3H-imidazo[4,5-b]pyridin-3-yl)benzyl)piperidin-4-yl)acetic acid]",0.5 to 2,< 20
Cc1nc(CN(C)[C@H]2CC[C@@H](C(=O)O)CC2)ccc1-n1c(-c2cccnc2N)nc2ccc(-c3ccccc3)nc21 [Compound I-184],0.5 to 2,< 20
"CC(c1ccc(-n2c(-c3cccnc3N)nc3ccc(-c4ccccc4)nc32)cc1)N1CCC(C(=O)O)C1 (stereo not shown) [Compound I-84, 1-(1-(4-(2-(2-aminopyridin-3-yl)-5-phenyl-3H-imidazo[4,5-b]pyridin-3-yl)phenyl)ethyl)pyrrolidine-3-carboxylic acid]",≥ 2,< 20
"Nc1ncccc1-c1nc2ccc(-c3ccccc3)nc2n1-c1ccc(CN2CC3(CC(C(=O)O)C3)C2)nc1 [Compound I-136, 2-((5-(2-(2-aminopyridin-3-yl)-5-phenyl-3H-imidazo[4,5-b]pyridin-3-yl)pyridin-2-yl)methyl)-2-azaspiro[3.3]heptane-6-carboxylic acid]",0.5 to 2,< 20
"Nc1ncccc1-c1nc2ccc(-c3ccccc3)cc2n1-c1ccc(NC(=O)C2CCCC(C(=O)O)C2)nc1 (stereo not shown) [Compound I-111, 3-((5-(2-(2-aminopyridin-3-yl)-6-phenyl-1H-benzo[d]imidazol-1-yl)pyridin-2-yl)carbamoyl)cyclohexane-1-carboxylic acid]",0.5 to 2,< 20
"CC(C)(C(=O)O)C1CCN(Cc2ccc(-n3c(-c4cccnc4N)nc4ccc(-c5ccccc5)nc43)cc2)C1 (stereo not shown) [Compound I-105, 2-[1-[[4-[2-(2-amino-3-pyridyl)-5-phenyl-imidazo[4,5-b]pyridin-3-yl]phenyl]methyl]pyrrolidin-3-yl]-2-methyl-propanoic acid]",0.5 to 2,< 20
"Nc1ncccc1-c1nc2ccc(-c3ccccc3)nc2n1-c1ccc(CN(CC(F)(F)F)[C@H]2CC[C@H](C(=O)O)CC2)cc1 (single isomer, unassigned) [Compound I-188, (1r,4r)-4-((4-(2-(2-aminopyridin-3-yl)-5-phenyl-3H-imidazo[4,5-b]pyridin-3-yl)benzyl)(2,2,2-trifluoroethyl)amino)cyclohexane-1-carboxylic acid]",≥ 2,< 20
CC(C)(C(=O)O)[C@@H]1CCN(Cc2ccc(-n3c(-c4cccnc4N)nc4ccc(-c5ccccc5)nc43)cc2)C1 (stereo in doubt) [Compound I-174],0.5 to 2,< 20

# Second part, the molecule after the results:
IC50 [1] [µM],IC50 [2] [µM],Structure (SMILES)
0.5 to 2,< 20,CCN(Cc1ccc(-n2c(-c3cccnc3N)nc3ccc(-c4ccccc4)nc32)cc1)[C@H]1CC[C@H](C(=O)O)CC1 [Compound I-167]
0.5 to 2,< 20,"Cc1nc(NC(=O)[C@H]2CC[C@H](C(N)=O)CC2)ccc1-n1c(-c2cccnc2N)nc2ccc(-c3ccccc3)nc21 [Compound I-142, trans-N-(5-(2-(2-aminopyridin-3-yl)-5-phenyl-3H-imidazo[4,5-b]pyridin-3-yl)-6-methylpyridin-2-yl)cyclohexane-1,4-dicarboxamide]"
< 0.5,< 20,"C[C@]1(C(=O)O)CC[C@@H](CN2CC(c3ccc(-n4c(-c5cccnc5N)nc5ccc(-c6ccccc6)nc54)cc3)C2)CC1 [Compound I-75, (1s,4s)-4-((3-(4-(2-(2-aminopyridin-3-yl)-5-phenyl-311-imidazo[4,5-b]pyridin-3-yl)phenyl)azetidin-1-yl)methyl)-1-methylcyclohexane-1-carboxylic acid]"
0.5 to 2,< 20,Cc1cc(C2CN(CC3CC4CC(C(=O)O)CC4C3)C2)ccc1-n1c(-c2cccnc2N)nc2ccc(-c3ccccc3)nc21 (stereo not shown) [Compound I-207]
0.5 to 2,< 20,"Nc1ncccc1-c1nc2ccc(-c3ccccc3)nc2n1-c1ccc(C2CCN(CC3CCC(C(=O)O)CC3)CC2)cc1 (stereo not shown) [Compound I-76, 4-((4-(4-(2-(2-aminopyridin-3-yl)-5-phenyl-3H-imidazo[4,5-b]pyridin-3-yl)phenyl)piperidin-1-yl)methyl)cyclohexane-1-carboxylic acid]"
< 0.5,< 20,Nc1ncccc1-c1nc2ccc(-c3ccccc3)nc2n1-c1ccc(C2CCN(C(=O)[C@H]3CC[C@@H](C(=O)O)CC3)CC2)cc1 [Compound I-199]
0.5 to 2,< 20,"Cc1cc(NC(=O)[C@H]2CC[C@H](C(=O)O)CC2)ccc1-n1c(-c2cccnc2N)nc2ccc(-c3ccccc3)nc21 [Compound I-102, (1r,4r)-4-((4-(2-(2-aminopyridin-3-yl)-5-phenyl-3H-imidazo[4,5-b]pyridin-3-yl)-3-methylphenyl)carbamoyl)cyclohexane-1-carboxylic acid]"
0.5 to 2,< 20,"Nc1ncccc1-c1nc2ccc(-c3ccccc3)cc2n1-c1ccc(NC(=O)[C@H]2CC[C@H](C(=O)O)CC2)nc1 [Compound I-32, (1r,4r)-4-((5-(2-(2-aminopyridin-3-yl)-6-phenyl-1H-benzo[d]imidazol-1-yl)pyridin-2-yl)carbamoyl)cyclohexane-1-carboxylic acid]"
< 0.5,< 20,"Nc1ncccc1-c1nc2ccc(-c3ccccc3F)nc2n1-c1ccc([C@@H]2CCN(C[C@H]3CC[C@H](C(=O)O)CC3)C2)cc1 (single isomer, unassigned) [Compound I-231]"
< 0.5,< 20,"Cc1cc2nc(-c3cccnc3N)n(-c3ccc(C4CN(C[C@H]5CC[C@@H](C(=O)O)CC5)C4)cc3)c2nc1-c1ccccc1 [Compound I-234, Cis-4-((3-(4-(2-(2-aminopyridin-3-yl)-6-methyl-5-phenyl-3H-imidazo[4,5-b]pyridin-3-yl)phenyl)azetidin-1-yl)methyl)cyclohexane-1-carboxylic acid]"
